Results as given in PubChem BioAssay (NCI).
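Where inhibition never reached the appropriate level, the endpoint shown equals the highest concentration tested. Otherwise, values were interpolated linearly from a five-concentration, 48-hour dose response in 96-well plates. GI50 = concentration required for 50% inhibition of growth. Definition used: TGI = concentration required for complete inhibition of growth.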

Assays:
Test in all cases: NCI-60 cell line screen, 48 h
RXF 393 renal = tested on: RXF 393 renal
SNB-75 CNS = tested on: SNB-75 CNS
T-47D breast = tested on: T-47D breast
MCF7 breast = tested on: MCF7 breast
RXF-631 renal = tested on: RXF-631 renal
HOP-18 NSCLC = tested on: HOP-18 NSCLC
EKVX NSCLC = tested on: EKVX NSCLC
DMS 273 small cell lung = tested on: DMS 273 small cell lung
XF 498 CNS = tested on: XF 498 CNS
SNB-78 CNS = tested on: SNB-78 CNS
M19-MEL melanoma = tested on: M19-MEL melanoma
DMS 114 small cell lung = tested on: DMS 114 small cell lung
KM20L2 colon = tested on: KM20L2 colon
HCC-2998 colon = tested on: HCC-2998 colon
DLD-1 colon = tested on: DLD-1 colon
LXFL 529 NSCLC = tested on: LXFL 529 NSCLC

| Compound | TGI (RXF 393 renal) [µM] | TGI (SNB-75 CNS) [µM] | TGI (T-47D breast) [µM] | TGI (MCF7 breast) [µM] | TGI (EKVX NSCLC) [µM] | TGI (HCC-2998 colon) [µM] | further results |
| --- | --- | --- | --- | --- | --- | --- | --- |
| CO/N=C(\C)COc1ccc2c(=O)c(-c3ccccc3)coc2c1 | 57.8 | 81.6 | 48.6 | > 100 |  |  | GI50 (RXF 393 renal): 27.1 µM; GI50 (SNB-75 CNS): 20 µM; GI50 (T-47D breast): 17.3 µM; GI50 (MCF7 breast): 39 µM |
| COc1cc(C2C(C(=O)O)=C(COC(C)=O)Oc3cc4c(cc32)OCO4)cc(OC)c1OC (stereo unspecified) | > 100 | > 100 |  |  | > 100 |  | TGI (RXF-631 renal): > 100 µM; TGI (HOP-18 NSCLC): > 100 µM; TGI (DMS 273 small cell lung): > 100 µM; TGI (XF 498 CNS): > 100 µM; TGI (SNB-78 CNS): > 100 µM; TGI (M19-MEL melanoma): > 100 µM; TGI (DMS 114 small cell lung): > 100 µM; TGI (KM20L2 colon): > 100 µM |
| CCCCCCOP(=O)(OCCCCCC)C(NC(=O)OCC)(C(F)(F)F)C(F)(F)F | 76.9 | > 100 | > 100 | > 100 | > 100 |  |  |
| CNC(=O)N(C)COC |  | > 100 |  |  | > 100 | > 100 | TGI (HOP-18 NSCLC): > 100 µM; TGI (XF 498 CNS): > 100 µM; TGI (SNB-78 CNS): > 100 µM; TGI (DLD-1 colon): > 100 µM; TGI (LXFL 529 NSCLC): > 100 µM; TGI (M19-MEL melanoma): > 100 µM; TGI (DMS 114 small cell lung): > 100 µM; TGI (KM20L2 colon): > 100 µM |
| CCOC(=O)C(O)(NC(=O)c1ccccc1F)C(F)(F)F (stereo unspecified) | > 100 | > 100 | > 100 | > 100 | > 100 | > 100 |  |
| N#Cc1c(N)sc2c1-c1ccccc1OC2 | 41.3 |  |  | > 100 | 31 | > 100 |  |
| CCc1ccc2nc(-c3ccc(O)cc3)sc2c1 |  |  |  | 46.4 |  |  |  |
